One test has as its system MRSA. The test is described as follows: Time-kill curves, MRSA at 4x MIC. As to conditions: 1-24 h. The class given is cell-based, Staphylococcus aureus. How it is done:
Time-kill curves were determined based on the CLSI guidelines ([Clinical and Laboratory Standards Institute [CLSI], 1999]). Single colonies grown overnight at 37°C were resuspended in Ca^2+-adjusted (0.05 mg/mL) Mueller Hinton broth up to an optical density (625 nm) of 0.08–00.10 (corresponding to the 0.5 McFarland standard), followed by a 10-fold dilution in the same broth. Subsequently, 0.2 mL inoculum was added to 1.7 mL Ca^2+-adjusted (0.05 mg/mL) Mueller Hinton broth, followed by addition of the antibacterial compound (0.1 mL). The final concentration of the antibacterial compound corresponded to the 4x MIC value for that compound. For the antibiotic-free control, the compound was replaced by an equal volume of ultrapure water. The final inoculum concentration was approximately 10^6 CFU/mL. The cultures were continuously shaken at 37°C. After 1, 2, 4, 6, 8, and 24 h, a 0.1 mL aliquot was removed, serially diluted in cold 0.9% w/v NaCl and plated on BHI (VRE) and LB (MRSA) agar plates. Plates were incubated overnight at 37°C and colonies were counted.

Another test deals with VRE39. The test is described as follows: MIC in the absence and presence of 10 µM vancomycin (vanA induction). The test is classed as cell-based, Enterococcus faecalis. As for the experimental part:
The minimum inhibitory concentration (MIC) was determined using the broth microdilution method according to the antimicrobial susceptibility testing standards of the clinical and laboratory standards institute ([Clinical and Laboratory Standards Institute [CLSI], 2012]). Ultrapure water and non-inoculated broth were used as controls. In one case, a final concentration of 10 μM vancomycin was included with the vancomycin analog or control antibiotic.

For the next test, the system named is VRE 39. The test is described as follows: Resistance development, serial exposure to subinhibitory doses, 20 cycles. The class given is cell-based, Enterococcus faecalis. Conditions: subinhibitory doses (MIC/2). How it is done: To monitor resistance development upon exposure to subinhibitory doses, the initial MIC of Vanc-39, Vanc-42 and daptomycin was determined against VRE 39. A new MIC assay was prepared using 1,000-fold diluted cells grown at MIC/2 (occasionally MIC/4 if growth in MIC/2 was too limited). This was repeated for 20 cycles and changes in MIC were monitored.

The next test relates to E. coli XL-1 blue MRF'. The test is described as follows: MIC, broth microdilution, E. coli XL-1 blue MRF'. The test is classed as cell-based, Escherichia coli. The procedure, abridged: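 Read-out: lowest concentration inhibiting growth in broth microdilution, CLSI method. Water and broth-only wells acted as controls; in one case 10 μM vancomycin (final) was present with the compound.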

The subject of a further test is B. subtilis PSB3. Nature of the test: MIC, broth microdilution, B. subtilis PSB3. The class given is cell-based, Bacillus subtilis. The procedure, abridged: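 Serial dilutions in broth, set up per CLSI guidance, gave the MIC. Where noted, test analogues or comparator antibiotics were combined with vancomycin at 10 μM final. Controls: ultrapure water, broth without inoculum.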
(In general: Broth dilution looks for growth in wells or tubes with falling amounts of substance.)

The subject of test [1] is lipid II with terminal D-Ala-D-Lac. Set-up: method as in Arthur and Courvalin, 1993; Walsh et al., 1996. Conditions: D-Ala-D-Lac versus D-Ala-D-Ala termini ref Arthur and Courvalin, 1993; Walsh et al., 1996; cited from earlier work.

Converted amounts (≈) assume the structure as drawn.

Take `CNC(CC(C)C)C(=O)NC1C(=O)NC(CC(N)=O)C(=O)NC2C(=O)NC3C(=O)NC(C(=O)NC(C(=O)NCCCNC(=O)c4cc5ccccc5[nH]4)c4cc(O)cc(O)c4-c4cc3ccc4O)C(O)c3ccc(c(Cl)c3)Oc3cc2cc(c3OC2OC(CO)C(O)C(O)C2OC2CC(C)(N)C(O)C(C)O2)Oc2ccc(cc2Cl)C1O` (stereo not drawn) [Vanc-24]: the time-kill curve character result with MRSA is “quickest onset of killing”. The MIC (usually the lowest concentration found to suppress growth) in the test with VRE39 (VRE39, 0 µM vancomycin) came to 3.13 µM; in the test on VRE39 (VRE39, 10 μM vancomycin added) it was 6.25 µM.
Take `CN[C@H](CC(C)C)C(=O)N[C@H]1C(=O)N[C@@H](CC(N)=O)C(=O)N[C@H]2C(=O)N[C@H]3C(=O)N[C@H](C(=O)N[C@H](C(=O)NCC(=O)Nc4ccc5c(c4)Cc4ccccc4-5)c4cc(O)cc(O)c4-c4cc3ccc4O)[C@H](O)c3ccc(c(Cl)c3)Oc3cc2cc(c3O[C@@H]2O[C@H](CO)[C@@H](O)[C@H](O)[C@H]2O[C@H]2C[C@](C)(N)[C@H](O)[C@H](C)O2)Oc2ccc(cc2Cl)[C@H]1O` [Vanc-42]: the “change in MIC upon serial exposure” value with VRE 39 was “oscillated between the original value and a twofold increase”. Besides, the MIC was 1.56 µM with VRE39 (VRE39, 0 µM vancomycin) and 1.56 µM with VRE39 (VRE39, 10 μM vancomycin added).
Regarding `CN[C@H](CC(C)C)C(=O)N[C@H]1C(=O)N[C@@H](CC(N)=O)C(=O)N[C@H]2C(=O)N[C@H]3C(=O)N[C@H](C(=O)N[C@H](C(=O)O)c4cc(O)cc(O)c4-c4cc3ccc4O)[C@H](O)c3ccc(c(Cl)c3)Oc3cc2cc(c3O[C@@H]2O[C@H](CO)[C@@H](O)[C@H](O)[C@H]2O[C@H]2C[C@](C)(N)[C@H](O)[C@H](C)O2)Oc2ccc(cc2Cl)[C@H]1O` [Vancomycin], the MICvanc/MICi in the test with E. coli XL-1 blue MRF' (E. coli XL-1 blue MRF', ratio of MIC of vancomycin and MIC of analogue) is listed as 1; in the test with B. subtilis PSB3 (ratio of MIC of vancomycin and MIC of analogue) it was 1. Also, the MIC in the test on E. coli XL-1 blue MRF' (Escherichia coli) came to 100 µM (≈ 145 µg/mL); against B. subtilis PSB3 (Bacillus subtilis) it was 0.39 µM (≈ 0.565 µg/mL); in the test with VRE39 (Enterococcus faecalis, VRE39, 0 µM vancomycin), 800 µM; in the test with VRE39 (Enterococcus faecalis, VRE39, 10 μM vancomycin added), 400 µM. Also, the “reduced affinity for vancomycin” value in test [1] was 1000 fold.
On to `CCCCc1ccc(NC(=O)CNC(=O)[C@H]2NC(=O)[C@H]3NC(=O)[C@H](NC(=O)[C@@H]4NC(=O)[C@H](CC(N)=O)NC(=O)[C@H](NC(=O)[C@@H](CC(C)C)NC)[C@H](O)c5ccc(c(Cl)c5)Oc5cc4cc(c5O[C@@H]4O[C@H](CO)[C@@H](O)[C@H](O)[C@H]4O[C@H]4C[C@](C)(N)[C@H](O)[C@H](C)O4)Oc4ccc(cc4Cl)[C@H]3O)c3ccc(O)c(c3)-c3c(O)cc(O)cc32)cc1` [Vanc-39], for which the “change in MIC upon serial exposure” value with VRE 39 was “oscillated between the original value and a twofold increase”. Also, the minimal inhibitory concentration (MIC) came out at 1.56 µM in the test on VRE39 (VRE39, 0 µM vancomycin) and 6.25 µM in the test with VRE39 (VRE39, 10 μM vancomycin added).
On to `CN(C)c1cc(NC(=O)CNC(C)(C)C)c(O)c2c1C[C@H]1C[C@H]3[C@H](N(C)C)C(O)=C(C(N)=O)C(=O)[C@@]3(O)C(O)=C1C2=O` [Tigecycline, reference compound], for which the time-kill curve character result in the test on MRSA was “typical bacteriostatic time-kill curve”.
As to `CCCCCCCCCC(=O)N[C@@H](Cc1c[nH]c2ccccc12)C(=O)N[C@H](CC(N)=O)C(=O)N[C@@H](CC(=O)O)C(=O)N[C@@H]1C(=O)NCC(=O)N[C@@H](CCCN)C(=O)N[C@@H](CC(=O)O)C(=O)N[C@H](C)C(=O)N[C@@H](CC(=O)O)C(=O)NCC(=O)N[C@H](CO)C(=O)N[C@@H]([C@H](C)CC(=O)O)C(=O)N[C@@H](CC(=O)c2ccccc2N)C(=O)O[C@@H]1C` [Daptomycin, reference compound], the “change in MIC upon serial exposure” value in the test on VRE 39 was “eightfold higher concentration”. Moreover, the time-kill curve character result in the test with MRSA was “complete elimination after 24 h”.
Consider `CNC(CC(C)C)C(=O)NC1C(=O)NC(CC(N)=O)C(=O)NC2C(=O)NC3C(=O)NC(C(=O)NC(C(=O)NCCCNC(=O)c4ccc5cc(NS(=O)(=O)c6ccc(C(C)C)cc6)ccc5c4)c4cc(O)cc(O)c4-c4cc3ccc4O)C(O)c3ccc(c(Cl)c3)Oc3cc2cc(c3OC2OC(CO)C(O)C(O)C2OC2CC(C)(N)C(O)C(C)O2)Oc2ccc(cc2Cl)C1O` (stereo not drawn) [Vanc-66], for which the minimal inhibitory concentration (MIC) in the test with VRE39 (VRE39, 0 µM vancomycin) is given as 3.13 µM; with VRE39 (VRE39, 10 μM vancomycin added) it was 3.13 µM.

The record behind these values is article PMC6001238, “Iterative Chemical Engineering of Vancomycin Leads to Novel Vancomycin Analogs With a High in Vitro Therapeutic Index” (Frontiers in Microbiology, 2018).
